ChEMBL document CHEMBL1201862, “PubChem BioAssay data set” (2004)
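Grown in 96-well plates, cells were treated for 48 hours with each compound at five concentrations. Insufficient inhibition: endpoint recorded as highest concentration tested. Abbreviation: GI50, concentration required for 50% inhibition of growth.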 Active and inactive are the calls of the source. Rule as the data show it: active = GI50 up to about 1.1 µM and inactive = higher.

How the values were obtained:
Test in all cases: NCI tumour cell line growth inhibition, 48 h
HT-29 = system: HT-29
U-251 = system: U-251
SK-MEL-2 = system: SK-MEL-2
OVCAR-3 = system: OVCAR-3
SNB-19 = system: SNB-19
RXF 393 = system: RXF 393
SN12C = system: SN12C
DLD-1 = system: DLD-1
OVCAR-5 = system: OVCAR-5
SF-295 = system: SF-295
A549 = system: A549
OVCAR-4 = system: OVCAR-4
SW-620 = system: SW-620
KM-20L2 = system: KM-20L2
SNB-78 = system: SNB-78
SK-MEL-5 = system: SK-MEL-5
RPMI-8226 = system: RPMI-8226

Measured: GI50

Cc1nc(Nc2ccccc2)sc1C(=O)CC(=O)C(=O)Nc1c(C(C)C)cccc1C(C)C
inactive: HT-29 > 100 µM | U-251 > 100 µM | SK-MEL-2 > 100 µM | OVCAR-3 97.9 µM | SNB-19 > 100 µM | RXF 393 42 µM | SN12C > 100 µM | DLD-1 87.9 µM | OVCAR-5 > 100 µM | SF-295 > 100 µM | A549 > 100 µM | OVCAR-4 > 100 µM | SW-620 > 100 µM | KM-20L2 85.1 µM | SNB-78 > 100 µM | SK-MEL-5 > 100 µM

COC1=CC(=O)OC(/C=C(C)/C=C/C2=C(C)CCCC2(C)C)C1 (centres undefined)
inactive: HT-29 > 100 µM | U-251 > 100 µM | SK-MEL-2 > 100 µM | OVCAR-3 > 100 µM | SNB-19 > 100 µM | RXF 393 > 100 µM | SN12C > 100 µM | DLD-1 > 100 µM | OVCAR-5 > 100 µM | SF-295 > 100 µM | A549 > 100 µM | OVCAR-4 > 100 µM | SW-620 > 100 µM | KM-20L2 36 µM | SNB-78 > 100 µM | SK-MEL-5 > 100 µM

CC[As](CC)SCC1OC(OC(C)=O)C(OC(C)=O)C(OC(C)=O)C1OC(C)=O (centres undefined)
inactive: HT-29 21.5 µM | U-251 12.8 µM | SK-MEL-2 12.6 µM | OVCAR-3 14.4 µM | SNB-19 17.9 µM | RXF 393 3.26 µM | SN12C 14.4 µM | DLD-1 16.1 µM | OVCAR-5 18.3 µM | SF-295 18.9 µM | A549 21 µM | OVCAR-4 21.9 µM | SW-620 4.74 µM | KM-20L2 18.7 µM | SNB-78 10.4 µM | SK-MEL-5 15.1 µM | RPMI-8226 6.58 µM

CC(=O)NNc1nc(C)c(C(=O)/C=C/c2ccc(N(C)C)cc2)s1
inactive: HT-29 > 100 µM | U-251 > 100 µM | SK-MEL-2 > 100 µM | OVCAR-3 > 100 µM | RXF 393 88.9 µM | SN12C > 100 µM | DLD-1 > 100 µM | OVCAR-5 > 100 µM | SF-295 > 100 µM | A549 > 100 µM | SW-620 > 100 µM | KM-20L2 > 100 µM | SNB-78 > 100 µM | SK-MEL-5 > 100 µM | RPMI-8226 > 100 µM

Nc1nc(NC2C=C(CO)C(O)C2O)c([N+](=O)[O-])c(=O)[nH]1 (centres undefined)
inactive: HT-29 > 100 µM | U-251 > 100 µM | SK-MEL-2 > 100 µM | OVCAR-3 > 100 µM | SNB-19 > 100 µM | RXF 393 > 100 µM | SN12C > 100 µM | DLD-1 > 100 µM | OVCAR-5 > 100 µM | SF-295 > 100 µM | A549 > 100 µM | OVCAR-4 > 100 µM | SW-620 > 100 µM | KM-20L2 > 100 µM | SNB-78 > 100 µM | SK-MEL-5 > 100 µM

O=c1c2ccccc2[nH]c2ccc3c(Cl)n[nH]c3c12
inactive: HT-29 37.6 µM | U-251 53.6 µM | SK-MEL-2 30.7 µM | OVCAR-3 57.4 µM | SNB-19 32.7 µM | RXF 393 42.2 µM | SN12C 33.5 µM | DLD-1 19.5 µM | OVCAR-5 41.1 µM | SF-295 37.2 µM | A549 15.9 µM | OVCAR-4 59.4 µM | SW-620 36.5 µM | KM-20L2 51.9 µM | SNB-78 55.3 µM | SK-MEL-5 40.9 µM | RPMI-8226 39.7 µM

CCOC(=O)c1ccc(/N=C\c2ccc(N(CCC#N)CCC#N)cc2)cc1
inactive: HT-29 > 100 µM | SK-MEL-2 > 100 µM | OVCAR-3 > 100 µM | SNB-19 > 100 µM | RXF 393 > 100 µM | SN12C > 100 µM | DLD-1 41.7 µM | OVCAR-5 > 100 µM | SF-295 > 100 µM | A549 70 µM | OVCAR-4 41.6 µM | SW-620 81.5 µM | KM-20L2 27.7 µM | SNB-78 > 100 µM | SK-MEL-5 78.3 µM | RPMI-8226 65.6 µM

CCN(CC)c1c(C(=O)/C=C/c2ccc(Cl)cc2)c(-c2ccccc2)nn(C)c1=O
inactive: HT-29 1.77 µM | U-251 1.76 µM | SK-MEL-2 1.93 µM | OVCAR-3 2.16 µM | SNB-19 1.93 µM | RXF 393 1.47 µM | SN12C 2.1 µM | DLD-1 1.73 µM | OVCAR-5 1.74 µM | SF-295 1.85 µM | A549 1.92 µM | OVCAR-4 1.66 µM | SW-620 2.16 µM | KM-20L2 2.47 µM | SNB-78 2.61 µM | SK-MEL-5 1.72 µM | RPMI-8226 2.25 µM

Cc1nc(C(N)=S)sc1C(=O)/C=C/c1c(O)ccc2ccccc12
inactive: HT-29 > 100 µM | U-251 > 100 µM | SK-MEL-2 > 100 µM | OVCAR-3 36.6 µM | SNB-19 > 100 µM | RXF 393 31.8 µM | SN12C > 88.1 µM | DLD-1 72.4 µM | OVCAR-5 > 100 µM | SF-295 51.5 µM | A549 > 100 µM | OVCAR-4 > 100 µM | SW-620 39.4 µM | KM-20L2 > 100 µM | SNB-78 > 100 µM | SK-MEL-5 32.4 µM | RPMI-8226 29.4 µM

O=C1[C@H]2ON(c3ccccc3)C(c3ccccc3F)[C@H]2C(=O)N1c1ccc(Cc2ccc(N3C(=O)[C@@H]4ON(c5ccccc5)C(c5ccccc5F)[C@@H]4C3=O)cc2)cc1 (some centres undefined)
inactive: HT-29 > 100 µM | U-251 > 100 µM | SK-MEL-2 > 100 µM | OVCAR-3 > 100 µM | RXF 393 55.2 µM | SN12C > 100 µM | DLD-1 > 100 µM | OVCAR-5 > 100 µM | SF-295 67.1 µM | A549 > 100 µM | OVCAR-4 > 100 µM | SW-620 > 100 µM | KM-20L2 > 100 µM | SNB-78 > 100 µM | SK-MEL-5 > 100 µM | RPMI-8226 > 100 µM

COc1cc(C=O)c(-c2cc(OC)c(OC)cc2C=O)cc1OC
inactive: HT-29 76.2 µM | U-251 > 100 µM | SK-MEL-2 67 µM | OVCAR-3 > 100 µM | SNB-19 > 100 µM | RXF 393 24.5 µM | SN12C > 100 µM | DLD-1 65 µM | OVCAR-5 > 100 µM | SF-295 > 100 µM | A549 > 100 µM | OVCAR-4 > 100 µM | SW-620 78 µM | KM-20L2 > 100 µM | SNB-78 > 100 µM | SK-MEL-5 76.6 µM | RPMI-8226 36.9 µM

CC(=O)OCC1OC(n2c(=O)n(-c3ccccc3)c(=O)c3ccccc32)C(OC(C)=O)C(OC(C)=O)C1OC(C)=O (centres undefined)
inactive: HT-29 > 100 µM | U-251 > 100 µM | SK-MEL-2 > 100 µM | OVCAR-3 > 100 µM | SNB-19 > 100 µM | RXF 393 > 100 µM | SN12C > 100 µM | DLD-1 > 100 µM | OVCAR-5 > 100 µM | SF-295 > 100 µM | A549 > 100 µM | OVCAR-4 > 100 µM | SW-620 > 100 µM | KM-20L2 > 100 µM | SNB-78 > 100 µM | SK-MEL-5 > 100 µM | RPMI-8226 73.8 µM

C#CC[N+](C)(CC#C)CC#C
inactive: HT-29 > 100 µM | SK-MEL-2 > 100 µM | OVCAR-3 > 100 µM | SNB-19 > 100 µM | RXF 393 > 100 µM | SN12C > 100 µM | DLD-1 > 100 µM | OVCAR-5 > 100 µM | SF-295 > 100 µM | A549 > 100 µM | OVCAR-4 > 100 µM | SW-620 > 100 µM | KM-20L2 > 100 µM | SNB-78 > 100 µM | SK-MEL-5 > 100 µM | RPMI-8226 > 100 µM

CC(=O)OC1C=CC2CCN3C(=O)c4cc5c(cc4[C@H]1C23)OCO5 (some centres undefined)
inactive: HT-29 > 100 µM | U-251 > 100 µM | OVCAR-3 > 100 µM | SNB-19 > 100 µM | RXF 393 > 100 µM | SN12C > 100 µM | DLD-1 > 100 µM | SF-295 > 100 µM | A549 > 100 µM | SW-620 > 100 µM | KM-20L2 > 100 µM | SNB-78 > 100 µM | RPMI-8226 > 100 µM

C[N+](C)(C)CC1CCC(C[N+](C)(C)C)C1=NO (centres undefined)
inactive: HT-29 > 100 µM | U-251 > 100 µM | SK-MEL-2 > 100 µM | OVCAR-3 > 100 µM | SNB-19 > 100 µM | RXF 393 > 100 µM | SN12C > 100 µM | DLD-1 > 100 µM | SF-295 > 100 µM | A549 > 100 µM | OVCAR-4 > 100 µM | SW-620 > 100 µM | KM-20L2 > 100 µM | SNB-78 > 100 µM | SK-MEL-5 > 100 µM | RPMI-8226 > 100 µM

O=c1oc2c(O)c(O)c(O)c3c(=O)oc4c(O)c(O)cc1c4c23 [FLAVELLAGIC ACID]
inactive: HT-29 39.5 µM | U-251 19.3 µM | SK-MEL-2 > 100 µM | OVCAR-3 61 µM | SNB-19 > 100 µM | RXF 393 > 100 µM | SN12C 18.6 µM | DLD-1 > 100 µM | OVCAR-5 > 100 µM | SF-295 23.8 µM | A549 > 100 µM | OVCAR-4 16.2 µM | SW-620 97.7 µM | KM-20L2 > 100 µM | SNB-78 > 100 µM | SK-MEL-5 > 100 µM | RPMI-8226 > 100 µM
